Test results from patent US6514946B1, “Macrolide antibiotics and treatment and prophylaxis of pasteurellosis using the same” (Zaidan Hojin Biseibutsu Kagaku Kenkyu Kai, priority 1999, dated 2003).
Values after ≈ are worked out from the molar mass of the structure shown.

Columns and labels:
P. haemolytica 63-39 = assay: Sensitivity (MIC), agar plate dilution method; conditions: P. haemolytica 63-39; agar plate dilution, 10^6 CFU/ml
S. aureus FDA209P = assay: Minimum inhibition concentration (MIC), agar double dilution method; format: cell-based, Staphylococcus aureus; conditions: Mueller hinton agar
Description: (§1) Test 1; Minimum Inhibition Concentration (MIC)
(§2) MIC was measured, based on the standard method of Japan Society of Chemotherapy, on a BHI agar medium (Brain heart-infusion agar, made by Difco Laboratories Inc.(USA)) with respect to Pasteurella and on a Mueller hinton agar medium (Mueller hinton agar, made by Difco, Laboratories Inc.(USA)) with respect to the other test bacteria in both cases according to the double dilution method.

M. bovis = format: in vivo, cattle; conditions: nasal cavity swab, before administration (baseline)
Ureaplasma = assay: Bacteria separation test from nasal cavity swab; format: in vivo, cattle
[1] = test system: P. haemolytica 63-39 intraperitoneally infected mice; assay: Antiinfective test on infected mice
[2] = test system: Past. multocida BOPO305 M-17; assay: Minimum inhibition concentration (MIC), agar double dilution method; format: cell-based, Pasteurella multocida; conditions: Past. multocida BOPO305 M-17, strain from a sheep; BHI agar
Description: as §1, §2

[3] = test system: Past. multocida BSPO302 No. 6; assay: as above; format: cell-based, Pasteurella multocida; conditions: Past. multocida BSPO302 No. 6, strain from a pig; BHI agar
Description: as §1, §2

Escherichia coli NIHJ = assay: as above; format: cell-based; conditions: Mueller hinton agar
Description: as §1, §2

Serratia marcescens = assay: as above; format: cell-based; conditions: Mueller hinton agar
Description: as §1, §2

[4] = test system: Salmonella enteritidis 1891; assay: as above; format: cell-based; conditions: Mueller hinton agar
Description: as §1, §2

[5] = test system: Micrococcus luteus PCI1001; assay: as above; format: cell-based; conditions: Mueller hinton agar
Description: as §1, §2

[6] = test system: Pasteurella haemolytica BBPO101 N791; assay: as above; format: cell-based; conditions: Pasteurella haemolytica BBPO101 N791, strain from cattle; BHI agar
Description: as §1, §2

[7] = test system: Staphylococcus aureus 193; assay: as above; format: cell-based; conditions: Mueller hinton agar
Description: as §1, §2

[8] = test system: Bacillus subtilis NRRL B-558; assay: as above; format: cell-based; conditions: Bacillus subtilis NRRL B-558; Mueller hinton agar
Description: as §1, §2

[9] = test system: Klebsiella pneumoniae PCI602; assay: as above; format: cell-based; conditions: Mueller hinton agar
Description: as §1, §2

[10] = test system: Shigella dysenteriae JS11910; assay: as above; format: cell-based; conditions: Shigella dysenteriae JS11910; Mueller hinton agar
Description: as §1, §2

[11] = test system: Enterobacter aerogenes ATCC13048; assay: as above; format: cell-based; conditions: Mueller hinton agar
Description: as §1, §2

M. bovirhinis = assay: Bacteria separation test from nasal cavity swab; format: in vivo, cattle
[12] = test system: bovine bacterial pneumonia (Mycoplasma, Ureaplasma and Pasteurella); assay: Clinical test against bovine bacterial pneumonia; format: in vivo, cattle; parameters: Average clinical score: scale not given here
Excerpt: Test 5: Clinical Test Against Bovine Bacterial Pneumonia
In this test, each drug was subcutaneously administered to cattle suffering from bacterial pneumonia (infectious diseases with Mycoplasma, Ureaplasma and Pasteurella), respectively, and the clinical effect of P-MT was compared with those of tilmicosin and C-9.
Tests are made on 17 case of one to two-month-old Holstein cattle (weight 56 to 101 kg) suffering from bacterial pneumonia caused by single or mixed infection of Pasteurella, Mycoplasma, Ureaplasma and Haemophilus (6 animals for each of P-MT and C-9 and 5 animals for tilmicosin). The drug was subcutaneously administered to the animals once a day in an amount of 10 mg/kg.
Three calves showing a similar degree of symptoms at the start of the test were arranged in one group. Each subject of the same group was respectively tested with one of the above three compounds. Ailing calves were successively grouped when being available.
Clinical findings, based on the daily observation from the time of the administration through the 5th day of the trial, were scored on each item according to the criteria in the table below. The clinical efficacy of the compounds was judged on the 5th day.
As to judgment based on the clinical symptoms, cases which could be judged among each group were classified into remarkably effective (85 to 100), effective (70 to under 85), a little effective (50 to under 70) and infective (under 50) according to the following improvement rate by clinical scores, and after summing up, the following effective rate was calculated, the difference in the effective rate among the groups was determined using a statistical method, and thus effectivity was judged. [formula]

[13] = test system: S. aureus Smith (virulent strain); assay: microbe, parasite or virus in culture; format: cell-based, Staphylococcus aureus; conditions: S. aureus Smith (virulent strain); Mueller hinton agar
Description: as §1, §2

[14] = test system: Past haemolytica BBPO102 N811; assay: Minimum inhibition concentration (MIC), agar double dilution method; format: cell-based, Pasteurella haemolytica; conditions: Past haemolytica BBPO102 N811, strain from cattle; BHI agar
Description: as §1, §2

[15] = test system: Past haemolytica BAPO103 S801; assay: as above; format: cell-based, Pasteurella haemolytica; conditions: Past haemolytica BAPO103 S801, strain from poultry; BHI agar
Description: as §1, §2

H. somnus = assay: Bacteria separation test from nasal cavity swab; format: in vivo, cattle
P. multocida = assay: Bacteria separation test from nasal cavity swab; format: in vivo, cattle
P. haemolytica = assay: Bacteria separation test from nasal cavity swab; format: in vivo, cattle
E. coli K-12 R-5 = assay: Minimum inhibition concentration (MIC), agar double dilution method; format: cell-based, Escherichia coli; conditions: Mueller hinton agar
Description: as §1, §2

ICR mice = assay: Toxicity test, intravenous or subcutaneous injection; format: in vivo
Proteus vulgaris OX19 = assay: Minimum inhibition concentration (MIC), agar double dilution method; format: cell-based; conditions: Mueller hinton agar
Description: as §1, §2

[16] = before administration (baseline)
[17] = probit method from surviving numbers after 7 days, subcutaneous
[18] = intravenous injection, 0.25 mg/mouse
[19] = intravenous injection, 0.5 mg/mouse
[20] = intravenous injection, 1.0 mg/mouse
[21] = subcutaneous injection, 1.0 mg/mouse
[22] = subcutaneous injection, 2.0 mg/mouse
[23] = subcutaneous injection, 3.0 mg/mouse
[24] = subcutaneous injection, 4.0 mg/mouse

CC[C@H]1OC(=O)C[C@@H](O)[C@H](C)[C@@H](O[C@@H]2O[C@H](C)C(O)C(N(C)C)C2O)[C@@H](CC=O)C[C@@H](C)C(=O)/C=C/C(C)=C/[C@@H]1CN1CCCCC1 (stereo partly shown)
MIC (P. haemolytica 63-39): 1.56 µg/mL (≈ 2.35 µM) | MIC (S. aureus FDA209P): 0.20 µg/mL (≈ 0.301 µM) | Separation rate (%) before administration (number of animal) (M. bovis): 33 (2/6) % (number of animal) | Separation rate (%) at completion (number of animal) (Ureaplasma; at completion): 33 (2/6) % (number of animal) | Separation rate (%) before administration (number of animal) (Ureaplasma; [16]): 100 (6/6) % (number of animal) | Surviving number after 7 days/test number ([1]; dose 1 mg/kg subcutaneous one hour after infection): 0/10 | Surviving number after 7 days/test number ([1]; dose 5 mg/kg subcutaneous one hour after infection): 1/10 | Surviving number after 7 days/test number ([1]; dose 10 mg/kg subcutaneous one hour after infection): 3/10 | Surviving number after 7 days/test number ([1]; dose 20 mg/kg subcutaneous one hour after infection): 10/10 | Surviving number after 7 days/test number ([1]; dose 30 mg/kg subcutaneous one hour after infection): 10/10 | ED50 (95% confidence limit) [1, 17]: 10.3 mg/kg (7.7-13.4) | ED90 [1, 17]: 18.3 mg/kg | MIC [2]: 0.39 µg/mL (≈ 0.587 µM) | MIC [3]: 0.39 µg/mL (≈ 0.587 µM) | MIC (Escherichia coli NIHJ): 0.78 µg/mL (≈ 1.17 µM) | MIC (Serratia marcescens): 6.25 µg/mL (≈ 9.4 µM) | MIC [4]: 0.78 µg/mL (≈ 1.17 µM) | MIC [5]: 0.10 µg/mL (≈ 0.15 µM) | MIC [6]: 0.78 µg/mL (≈ 1.17 µM) | MIC [7]: 0.20 µg/mL (≈ 0.301 µM) | MIC [8]: 0.39 µg/mL (≈ 0.587 µM) | MIC [9]: 0.78 µg/mL (≈ 1.17 µM) | MIC [10]: 3.13 µg/mL (≈ 4.71 µM) | MIC [11]: 6.25 µg/mL (≈ 9.4 µM) | Separation rate (%) at completion (number of animal) (M. bovirhinis; at completion): 33 (2/6) % (number of animal) | Separation rate (%) before administration (number of animal) (M. bovirhinis; [16]): 67 (4/6) % (number of animal) | Average clinical score ([12]; 1 day after completion of administration, cattle, 10 mg/kg subcutaneous): 3.3 | Average clinical score ([12]; 2 days after completion of administration): 2.5 | Average clinical score ([12]; 3 days after completion of administration): 2.0 | Average clinical score ([12]; 4 days after completion of administration): 1.8 | Effective rate (%) in clinical effect ([12]; (remarkably effective + effective case number)/test case number × 100): 50% | Average symptomatic improvement rate (%) ([12]; (score before − score after administration)/score before × 100): 75.9% | Average clinical score ([12]; at administration (baseline), cattle, 10 mg/kg subcutaneous): 7.5 | A little effective (%) (case number) ([12]; improvement rate 50 to under 70): 50 (3) % (case number) | Effective (%) (case number) ([12]; improvement rate 70 to under 85): 33 (2) % (case number) | Remarkably effective (%) (case number) ([12]; improvement rate 85 to 100): 17 (1) % (case number) | Ineffective (%) (case number) ([12]; improvement rate under 50): 0 (0) % (case number) | MIC [13]: 0.39 µg/mL (≈ 0.587 µM) | MIC [14]: 0.78 µg/mL (≈ 1.17 µM) | MIC [15]: 0.78 µg/mL (≈ 1.17 µM) | Separation rate (%) at completion (number of animal) (H. somnus; at completion): 0 (0/6) % (number of animal) | Separation rate (%) before administration (number of animal) (H. somnus; [16]): 0 (0/6) % (number of animal) | Separation rate (%) at completion (number of animal) (P. multocida; at completion): 50 (3/6) % (number of animal) | Separation rate (%) before administration (number of animal) (P. multocida; [16]): 100 (6/6) % (number of animal) | Separation rate (%) at completion (number of animal) (P. haemolytica; at completion): 17 (1/6) % (number of animal) | Separation rate (%) before administration (number of animal) (P. haemolytica; [16]): 17 (1/6) % (number of animal) | MIC (E. coli K-12 R-5): >100 µg/mL

CC[C@H]1OC(=O)C[C@@H](O)[C@H](C)[C@@H](O[C@@H]2O[C@H](C)C(O)C(N(C)C)C2O)[C@@H](CCN2CCCCCCC2)C[C@@H](C)C(=O)/C=C/C(C)=C/[C@@H]1CN1CCCCCCC1 (stereo partly shown) [Compound C-8]
MIC (S. aureus FDA209P): 0.78 µg/mL (≈ 0.987 µM) | MIC [2]: 0.78 µg/mL (≈ 0.987 µM) | MIC [3]: 0.39 µg/mL (≈ 0.494 µM) | Dissection finding (ICR mice; [18]): no abnormal finding | Surviving number (ICR mice; [18]): 3/3 | Dissection finding (ICR mice; [19]): no abnormal finding | Surviving number (ICR mice; [19]): 3/3 | Dissection finding (ICR mice; [20]): no abnormal finding | Surviving number (ICR mice; [20]): 3/3 | Surviving number (ICR mice; intravenous injection, 1.5 mg/mouse): 0/1 (immediate death) | Surviving number (ICR mice; intravenous injection, 2.0 mg/mouse): 0/3 (immediate death) | Surviving number (ICR mice; intravenous injection, 4.0 mg/mouse): 0/1 (immediate death) | Dissection finding (ICR mice; [21]): Sores and alopecia at the administration part | Surviving number / number of used animals (ICR mice; [21]): 2/2 | Dissection finding (ICR mice; [22]): Sores and alopecia at the administration part | Surviving number / number of used animals (ICR mice; [22]): 2/2 | Dissection finding (ICR mice; [23]): Sores and alopecia at the administration part | Surviving number / number of used animals (ICR mice; [23]): 2/2 | Dissection finding (ICR mice; [24]): Sores and alopecia at the administration part | Surviving number / number of used animals (ICR mice; [24]): 2/2 | MIC (Escherichia coli NIHJ): 1.56 µg/mL (≈ 1.97 µM) | MIC (Serratia marcescens): 12.5 µg/mL (≈ 15.8 µM) | MIC (Proteus vulgaris OX19): 6.25 µg/mL (≈ 7.91 µM) | MIC [4]: 0.78 µg/mL (≈ 0.987 µM) | MIC [5]: 0.20 µg/mL (≈ 0.253 µM) | MIC [6]: 0.20 µg/mL (≈ 0.253 µM) | MIC [7]: 0.78 µg/mL (≈ 0.987 µM) | MIC [8]: 3.13 µg/mL (≈ 3.96 µM) | MIC [9]: 3.13 µg/mL (≈ 3.96 µM) | MIC [10]: 0.78 µg/mL (≈ 0.987 µM) | MIC [11]: 6.25 µg/mL (≈ 7.91 µM) | MIC [13]: 1.56 µg/mL (≈ 1.97 µM) | MIC [14]: 0.39 µg/mL (≈ 0.494 µM) | MIC [15]: 1.56 µg/mL (≈ 1.97 µM) | MIC (E. coli K-12 R-5): 1.56 µg/mL (≈ 1.97 µM)
